Patent US20240368173A1, “TRICYCLIC GPR65 MODULATORS” (PATHIOS THERAPEUTICS LIMITED, priority 2021, published 2024)
Like-named read-outs stand apart in the source and are kept apart here.

Biological target: human recombinant GPR65 (Homo sapiens, UniProt Q8IYL9)
Assay: Human GPR65 cAMP HTRF antagonist assay
Type: cell-based
In short: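 Antagonism measured as suppression of the cAMP rise when pH is dropped to 7.2 (control wells pH 7.9) in 1321N1 cells stably carrying human GPR65. Cells in KRH with 1 mM IBMX and 200 μM EDTA saw compound 30 min, then acid stimulation 30 min; HTRF cAMP detection, normalised, 4-parameter logistic IC50.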

[1] = 1321N1-hrGPR65 cells, cAMP HTRF, assay pH 7.2, read-out: hGPR65 IC50 (Activity of selected compounds according to the invention)

Chain of human recombinant GPR65 (Q8IYL9 whole entry): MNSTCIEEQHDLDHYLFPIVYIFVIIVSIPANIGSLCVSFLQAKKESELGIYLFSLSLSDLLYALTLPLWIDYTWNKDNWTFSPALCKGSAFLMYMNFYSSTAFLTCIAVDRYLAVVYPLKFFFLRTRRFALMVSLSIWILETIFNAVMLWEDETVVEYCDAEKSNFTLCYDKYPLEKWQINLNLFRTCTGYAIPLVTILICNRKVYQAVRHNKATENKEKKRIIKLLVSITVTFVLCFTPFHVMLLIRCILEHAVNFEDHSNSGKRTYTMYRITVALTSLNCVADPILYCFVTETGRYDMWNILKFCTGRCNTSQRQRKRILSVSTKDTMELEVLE

| SMILES | IC50 [1] [nM] | IC50 [nM] |
| --- | --- | --- |
| Nc1ccc(-c2cc(F)c(NC(=O)N3[C@H]4CC[C@@H]3c3n[nH]c(=O)cc3C4)cc2Cl)cn1 [Compound 118, (6S,9R)-N-(4-(6-Aminopyridin-3-yl)-5-chloro-2-fluorophenyl)-3-oxo-3,5,6,7,8,9-hexahydro-2H-6,9-epiminocyclohepta[c]pyridazine-10-carboxamide] | 500 to 5000 | – |
| CCOc1ccc(-c2cc(F)c(NC(=O)N3[C@H]4CC[C@@H]3c3n[nH]c(=O)cc3C4)cc2Cl)cn1 [Compound 208, (6S,9R)-N-(5-Chloro-4-(6-ethoxypyridin-3-yl)-2-fluorophenyl)-3-oxo-3,5,6,7,8,9-hexahydro-2H-6,9-epiminocyclohepta[c]pyridazine-10-carboxamide] | – | < 500 |
| O=C(Nc1cc(Cl)c(-c2cncc(F)c2)cc1F)N1[C@H]2CC[C@@H]1c1ccnc(F)c1C2 [Compound 200, (5R,8S)-N-(5-Chloro-2-fluoro-4-(5-fluoropyridin-3-yl)phenyl)-1-fluoro-6,7,8,9-tetrahydro-5H-5,8-epiminocyclohepta[c]pyridine-10-carboxamide] | – | < 500 |
| COc1ncc(-c2cc(F)c(NC(=O)N3[C@H]4CC[C@@H]3c3n[nH]c(=O)cc3C4)cc2Cl)cn1 [Compound 281, (6S,9R)-N-(5-Chloro-2-fluoro-4-(2-methoxypyrimidin-5-yl)phenyl)-3-oxo-3,5,6,7,8,9-hexahydro-2H-6,9-epiminocyclohepta[c]pyridazine-10-carboxamide] | – | < 500 |
| COC(=O)c1cncc(-c2cc(F)c(NC(=O)N3[C@H]4CC[C@@H]3c3n[nH]c(=O)cc3C4)cc2Cl)c1 [Compound 188, Methyl 5-(2-chloro-5-fluoro-4-((6S,9R)-3-oxo-3,5,6,7,8,9-hexahydro-2H-6,9-epiminocyclohepta[c]pyridazine-10-carboxamido)phenyl)nicotinate] | – | < 500 |
| CS(=O)(=O)c1cncc(-c2cc(F)c(NC(=O)N3[C@H]4CC[C@@H]3c3n[nH]c(=O)cc3C4)cc2Cl)c1 [Compound 122, (6S,9R)-N-(5-Chloro-2-fluoro-4-(5-(methylsulfonyl)pyridin-3-yl)phenyl)-3-oxo-3,5,6,7,8,9-hexahydro-2H-6,9-epiminocyclohepta[c]pyridazine-10-carboxamide] | 500 to 5000 | – |
| O=C(Nc1cc(Cl)c(C2(O)CC2)cc1F)N1[C@H]2CC[C@@H]1c1ccnc(F)c1C2 [Compound 68, (5R,8S)-N-(5-Chloro-2-fluoro-4-(1-hydroxycyclopropyl)phenyl)-1-fluoro-6,7,8,9-tetrahydro-5H-5,8-epiminocyclohepta[c]pyridine-10-carboxamide] | 500 to 5000 | – |
| O=C(Nc1cc(-c2cncc(F)c2)c(C(F)(F)F)cc1F)N1[C@H]2CC[C@@H]1c1c[nH]c(=O)cc1C2 [Compound 255, (6S,9R)-N-(2-Fluoro-5-(5-fluoropyridin-3-yl)-4-(trifluoromethyl)phenyl)-3-oxo-3,5,6,7,8,9-hexahydro-2H-6,9-epiminocyclohepta[c]pyridine-10-carboxamide] | – | < 500 |
| COc1ncc(-c2cc(F)c(NC(=O)N3[C@H]4CC[C@@H]3c3ccnc(F)c3C4)cc2Cl)cc1F [Compound 219, (5R,8S)-N-(5-Chloro-2-fluoro-4-(5-fluoro-6-methoxypyridin-3-yl)phenyl)-1-fluoro-6,7,8,9-tetrahydro-5H-5,8-epiminocyclohepta[c]pyridine-10-carboxamide] | – | < 500 |
| COc1cnccc1-c1cc(F)c(NC(=O)N2[C@H]3CC[C@@H]2c2n[nH]c(=O)cc2C3)cc1Cl [Compound 299, (6S,9R)-N-(5-Chloro-2-fluoro-4-(3-methoxypyridin-4-yl)phenyl)-3-oxo-3,5,6,7,8,9-hexahydro-2H-6,9-epiminocyclohepta[c]pyridazine-10-carboxamide] | 500 to 5000 | – |
| CC(C)Oc1ccc(-c2cc(F)c(NC(=O)N3[C@H]4CC[C@@H]3c3c[nH]c(=O)cc3C4)cc2Cl)cn1 [Compound 273, (6S,9R)-N-(5-Chloro-2-fluoro-4-(6-isopropoxypyridin-3-yl)phenyl)-3-oxo-3,5,6,7,8,9-hexahydro-2H-6,9-epiminocyclohepta[c]pyridine-10-carboxamide] | – | < 500 |
| O=C(Nc1cc(-c2cccnc2F)c(-c2cccnc2F)cc1F)N1[C@H]2CC[C@@H]1c1n[nH]c(=O)cc1C2 [Compound 116, (6S,9R)-N-(2-Fluoro-4,5-bis(2-fluoropyridin-3-yl)phenyl)-3-oxo-3,5,6,7,8,9-hexahydro-2H-6,9-epiminocyclohepta[c]pyridazine-10-carboxamide] | 500 to 5000 | – |
| N#Cc1cnc(F)c2c1[C@H]1CC[C@@H](C2)N1C(=O)Nc1cc(Cl)c(Cl)cc1F [Compound 160, (5R,8S)-4-Cyano-N-(4,5-dichloro-2-fluorophenyl)-1-fluoro-6,7,8,9-tetrahydro-5H-5,8-epiminocyclohepta[c]pyridine-10-carboxamide] | 500 to 5000 | – |
| Cn1ncc2ccc(-c3cc(F)c(NC(=O)N4[C@H]5CC[C@@H]4c4n[nH]c(=O)cc4C5)cc3Cl)cc21 [Compound 152, (6S,9R)-N-(5-Chloro-2-fluoro-4-(1-methyl-1H-indazol-6-yl)phenyl)-3-oxo-3,5,6,7,8,9-hexahydro-2H-6,9-epiminocyclohepta[c]pyridazine-10-carboxamide] | – | < 500 |
| O=C(Nc1ccc(OC(F)(F)F)c(Cl)c1)N1C2CCC1c1n[nH]c(=O)cc1C2 (racemic) [Compound 9, (±)-N-(3-Chloro-4-(trifluoromethoxy)phenyl)-3-oxo-3,5,6,7,8,9-hexahydro-2H-6,9-epiminocyclohepta[c]pyridazine-10-carboxamide] | – | < 500 |
| O=C(Nc1cc(Cl)c(-c2cncc(F)c2)cn1)N1[C@H]2CC[C@@H]1c1n[nH]c(=O)cc1C2 [Compound 229, (6S,9R)-N-(4-Chloro-5′-fluoro-[3,3′-bipyridin]-6-yl)-3-oxo-3,5,6,7,8,9-hexahydro-2H-6,9-epiminocyclohepta[c]pyridazine-10-carboxamide] | – | < 500 |
| COCc1ccncc1-c1cc(F)c(NC(=O)N2[C@H]3CC[C@@H]2c2n[nH]c(=O)cc2C3)cc1Cl [Compound 192, (6S,9R)-N-(5-Chloro-2-fluoro-4-(4-(methoxymethyl)pyridin-3-yl)phenyl)-3-oxo-3,5,6,7,8,9-hexahydro-2H-6,9-epiminocyclohepta[c]pyridazine-10-carboxamide] | 500 to 5000 | – |
| O=C(Nc1cc(Cl)c(-c2ccc(OC3CCOC3)nc2)cc1F)N1[C@H]2CC[C@@H]1c1n[nH]c(=O)cc1C2 (stereo partly drawn) [Compound 342, (6S,9R)-N-(5-Chloro-2-fluoro-4-(6-((tetrahydrofuran-3-yl)oxy)pyridin-3-yl)phenyl)-3-oxo-3,5,6,7,8,9-hexahydro-2H-6,9-epiminocyclohepta[c]pyridazine-10-carboxamide] | – | < 500 |
| O=C(Nc1cc(Cl)c(-c2ccc3conc3c2)cc1F)N1[C@H]2CC[C@@H]1c1n[nH]c(=O)cc1C2 [Compound 198, (6S,9R)-N-(4-(Benzo[c]isoxazol-6-yl)-5-chloro-2-fluorophenyl)-3-oxo-3,5,6,7,8,9-hexahydro-2H-6,9-epiminocyclohepta[c]pyridazine-10-carboxamide] | – | < 500 |
| O=C(Nc1cc(Cl)c(Cl)cc1F)N1[C@H]2CC[C@@H]1c1c[nH]c(=O)nc1C2 [Compound 22, (5R,8S)-N-(4,5-Dichloro-2-fluorophenyl)-2-oxo-3,5,6,7,8,9-hexahydro-2H-5,8-epiminocyclohepta[d]pyrimidine-10-carboxamide] | – | < 500 |
